Results as given in article PMC8894927, “Oxylipin signaling in salt-stressed soybean is modulated by ligand-dependent interaction of Class II acyl-CoA-binding proteins with lipoxygenase” (The Plant Cell, 2021).
“And” between values parts separate entries of the source, which are not always exact repeats. Equal values may be shown once.

Experiments:
[1] = system: GmACBP4.1_33–354 interaction with VLXB:StrepII; assay: Strep-Tactin pull-down assay with supplemented acyl-CoAs; type: binding, soybean; conditions: acyl-CoA 12.5–100 μM, versus control without acyl-CoA
GmACBP4.1_33–354 (WT) = target: T1, GmACBP4.1_33–354 (WT) (Glycine max, UniProt I1KAV2); conditions: SEM, n = 3
T1 construct: gene LOC100816670
T1 sequence (I1KAV2 33-354): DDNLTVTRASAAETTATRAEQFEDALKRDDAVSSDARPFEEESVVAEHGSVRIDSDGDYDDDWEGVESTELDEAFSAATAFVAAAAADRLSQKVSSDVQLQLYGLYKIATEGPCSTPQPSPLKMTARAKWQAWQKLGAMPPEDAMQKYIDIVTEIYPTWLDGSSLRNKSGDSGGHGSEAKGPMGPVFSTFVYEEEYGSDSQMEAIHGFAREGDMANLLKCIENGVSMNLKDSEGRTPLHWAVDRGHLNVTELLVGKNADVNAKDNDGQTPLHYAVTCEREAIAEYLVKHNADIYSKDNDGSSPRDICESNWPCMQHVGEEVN
Excerpt: The liposome-associated protein fraction was quantified densitometrically. […] D, Protein–lipid bead binding assays with competing acyl-CoAs. […] Bound and unbound WT (left panel) and Y135A (middle panel) were detected by immunoblotting using anti-GsACBP3 antibodies. Input lanes represent 50% protein. Arrowheads indicate target bands. The PA-bound protein fraction was quantified densitometrically. The half maximal inhibitory concentration (IC50) of the WT is the mean ± SEM from three independent experiments.
To validate this assumption, the binding of the WT and Y135A mutant to PA beads was investigated in the presence of C18:2-CoA (Figure 5, D).
After three washes in the same buffer, bound proteins were eluted with 6× Laemmli sample buffer. Protein binding on filter strips, liposomes, and PA beads was detected by immunoblotting using anti-ACBP3.1 antibodies.

[2] = target: (His)6-GmACBP4.1_33–354 (WT or Y135A mutant); assay: Protein–lipid bead binding assay with competing acyl-CoA (PA beads); parameters: species or system soybean
(His)6-GmACBP4.1_33–354 [3] = assay: Isothermal titration calorimetry of acyl-CoA binding (WT protein); parameters: species or system soybean; conditions: ITC at 25°C; 15 μM protein titrated with 200 μM acyl-CoA; mean ± SD, three experiments; read-out: KD, dissociation constant
Method: ITC was conducted with a MicroCal iTC200 system (GE Healthcare) at 25°C in 10 mM sodium phosphate (pH 7) by 20 injections of 1.8-μL acyl-CoAs (200 μM; Avanti Polar Lipids Inc., Alabaster, AL, USA) into the sample cell with 15 μM purified (His)6-GmACBP4.1. Each injection lasted 4 s at 150-s intervals with a stirring speed of 1,000 rpm. Nonspecific heat effects were estimated and corrected after saturation. The baseline was adjusted, and the data were fitted into a single-site binding model using the Origin version 7.0 software (OriginLab).
Supplemental Table 1. Binding constants and thermodynamic parameters for (His)6-GmACBP4.133–354 interaction with acyl-CoAs. (Supports Figure 5A) […]
Isothermal titration calorimetry analysis was performed by titration of 250 μL of 15 μM (His)6-GmACBP4.133–354 with […]
from three independent experiments. n, stoichiometry (number of ligand sites per protein); KD, dissociation constant; ∆H, enthalpy change; −T∆S, entropy change; ∆G, Gibbs free energy.

AtACBP1 = target: AtACBP1; parameters: method as in Xue et al., 2014; conditions: ref Xue et al., 2014; cited from earlier work
[4] = system: GmACBP4.1_33–354 interaction with GmPLDα1:StrepII; assay: Strep-Tactin pull-down assay with supplemented acyl-CoAs; type: binding, soybean; conditions: acyl-CoA 12.5–100 μM, versus control without acyl-CoA
Excerpt: Figure 6 Specific acyl-CoA species facilitate GmACBP4 interaction with VLXB and GmPLDα1. A, Strep-Tactin pull-down assays. […] (His)6-GmACBP4.1_33–354 were detected in eluates by immunoblotting using anti-ACBP3 antibodies. […] Input lanes represent 1% protein. Arrowheads indicate target bands of 40-kD (His)6-GmACBP4.1_33–354 (apparent: 50 kD). The bound protein fraction was quantified densitometrically. […] B–C, Strep-Tactin pull-down assays with supplemented acyl-CoAs. […] Input lanes represent 5% proteins in (B) or 10% proteins in (C). Arrowheads indicate target bands of 40-kD (His)6-GmACBP4.1_33–354 (apparent: 50kD).
Strep-Tactin pull-down assays were performed using Strep-Tactin XT resins (IBA) following the manufacturer’s instructions. Briefly, 5 μL of resins with/without prebound VLXB:StrepII or GmPLDα1:StrepII (0.5 μM) were agitated with GmACBP4.1_33–354 (0.5 μM) and acyl-CoAs (0, 12.5, 25, 50, and 100 μM) in Buffer W containing 0.1 M Tris–HCl (pH 7), 0.15 M NaCl, 1 mM EDTA and 0.05% (w/v) Triton X-100 at 4°C for 2 h. After three washes in Buffer W, bound proteins were eluted in Buffer W with 50 mM biotin, and analyzed by immunoblotting using anti-ACBP3.1 antibodies.

(His)6-GmACBP3.1_33–346 = assay: Protein–lipid overlay assay; type: binding, soybean; conditions: commercial strips with 15 neutral and polar lipids; 0.5 μg mL−1 protein
(His)6-GmACBP4.1_33–354 [5] = assay: Protein–lipid overlay assay; type: binding, soybean; conditions: commercial strips and PA-spotted nitrocellulose strips; 0.5 μg mL−1 protein
(His)6-GmACBP4.1_33–354 [6] = assay: Liposome association assay for PA binding; parameters: species or system soybean; conditions: PA:di-16:0-PC liposomes, 0–100% (w/w) PA
[7] = system: AtACBP2 interaction with LYSOPL2; parameters: method as in Miao et al., 2019; conditions: ref Miao et al., 2019; cited from earlier work

**Q.** What does the source list for `CCCCC/C=C\C/C=C\CCCCCCCC(=O)SCCNC(=O)CCNC(=O)[C@H](O)C(C)(C)COP(=O)(O)OP(=O)(O)OC[C@H]1O[C@@H](n2cnc3c(N)ncnc32)[C@H](O)[C@@H]1OP(=O)(O)O` [C18:2-CoA, linoleoyl-CoA]?
**A.** increase in WT binding with VLXB:StrepII [1]: up to four-fold; IC50 (GmACBP4.1_33–354 (WT)): 22.9 µM; IC50 ([2]; WT protein 2.5 μg mL−1, 1 μM PA beads, competing C18:2-CoA, mean ± SEM, three experiments, read-out: half maximal inhibitory concentration (IC50) for PA-bound WT fraction): 22.9 µM; effect on Y135A binding to PA beads ([2]; Y135A mutant, compared with WT): less affected; Kd ((His)6-GmACBP4.1_33–354 [3]): 920 nM and 900 to 1200 nM; Kd (AtACBP1): 400 to 800 nM; increase in WT binding with GmPLDα1:StrepII [4]: did not influence

**Q.** Which results are given for `CCCCCCCCCCCCCCCC(=O)OCC(COP(=O)(O)O)OC(=O)CCCCCCCCCCCCCCC` (stereo not drawn) [di-16:0-PA]?
**A.** binding on lipid filter strips ((His)6-GmACBP3.1_33–346): sole ligand; binding on lipid filter strips ((His)6-GmACBP4.1_33–354 [5]): sole ligand; descending order of affinity to the WT (liposome association) ((His)6-GmACBP4.1_33–354 [6]): di-16:0-PA ≈ di-18:1-PA > di-18:0-PA > di-14:0-PA; descending order of affinity to the WT (liposome association) ((His)6-GmACBP4.1_33–354 [6]; listed as 32:0-PA): relatively higher affinity

**Q.** For lysophosphatidylcholine, which “fold higher affinity of AtACBP2 for LYSOPL2 interaction when complexed with the ligand” value [7] is on record?
**A.** 10 fold
